Reference: PMC10669656, “ADMET and Solubility Analysis of New 5-Nitroisatine-Based Inhibitors of CDK2 Enzymes” (Biomedicines, 2023)
≈ marks a conversion by molar mass, not a printed value. Where “and” joins values, the source holds several entries; their conditions need not be identical. Identical values can stand only once.

Key:
Assay type in all cases: physicochemical
[1] = Solubility in neat solvents, shake-flask with spectrophotometric determination; details: for solubility at 24 h: 25 °C, organic solvent or mixture, thermodynamic from solid
Method: (§1) The calibration curves for each derivative were obtained using successful dilutions of initial stock solutions followed by spectrophotometric measurements of the obtained solutions with decreasing concentration. The concentration ranges for the derivatives 1, 2, and 3 were 0.0081–0.0405 mg/mL, 0.0077–0.0385 mg/mL, and 0.0068–0.017 mg/mL, respectively. Methanol was used both as a solvent, as well as a reference for spectrophotometric measurements. […] The A360 spectrophotometer from AOE Instruments was used for the preparation of the calibration curves. […] Three calibration curves were prepared for each derivative and then averaged.
(§2) A multi-step procedure was employed in order to find the solubility of the studied derivatives in the selected solvents. First of all, the excess amount of the considered compound was added to test tubes containing either neat solvents or their mixtures with water in different proportions, thus forming binary solvents. Saturated solutions were obtained in this way, placed in a Shaker Incubator ES-20/60 from Biosan, and incubated for 24 h at 298.1 K. The temperature adjustment was possible with a 0.1-degree accuracy, and the variance within a 24 h cycle was 0.5 degrees. The samples were simultaneously mixed at 60 rev/min. After incubation, the samples were filtered with the help of plastic syringes equipped with PTFE filters with 0.22 µm pore size. The obtained filtrates were diluted with methanol in another set of test tubes. In order to determine the mole fractions of a solute in the solution, 1 mL of the filtered samples was weighed in 10 mL volumetric flasks using a RADWAG AS 110 R2.PLUS analytical balance. The samples diluted with methanol were measured spectrophotometrically using the same instrument as was used in the case of calibration curves. The spectra were recorded in the wavelength range of 190–500 nm, and the resolution was 1 nm. Methanol was used if further dilution of the sample was required, and it was also used as a reference for calibrating the spectrophotometer. The absorbance values at 315 nm, 321 nm, and 321 nm were taken into account for derivatives 1, 2, and 3, respectively. Based on the calibration curves, the concentration of the solute in the samples was determined together with its mole fraction. Three separate measurements were conducted, and the final values are the results of averaging them.

[2] = Solubility in DMSO-water binary mixtures; details: for solubility at 24 h: 25 °C, thermodynamic from solid
Method: as §1, §2

[3] = Solubility in NMP-water binary mixtures; details: for solubility at 24 h: thermodynamic from solid
Method: as §1, §2

[4] = neat γ-nonanoic lactone, 298.1 K

- solubility at 24 h ([1]; neat DMF, 298.1 K): 119000 µg/mL (≈ 315 mM)
- solubility at 24 h ([1]; neat DMP, 298.1 K): 940 µg/mL (≈ 2.49 mM)
- solubility at 24 h ([1]; neat DMSO, 298.1 K): 327000 µg/mL (≈ 864 mM)
- solubility at 24 h ([1]; neat NMP, 298.1 K): 265000 µg/mL (≈ 701 mM)
- solubility at 24 h ([1]; neat acetone, 298.1 K): 4390 µg/mL (≈ 11.6 mM)
- solubility at 24 h ([1]; neat acetonitrile, 298.1 K): 2020 µg/mL (≈ 5.34 mM)
- solubility at 24 h ([1]; neat cyrene, 298.1 K): 1620 µg/mL (≈ 4.28 mM)
- solubility at 24 h ([1]; neat diglyme, 298.1 K): 2520 µg/mL (≈ 6.66 mM)
- solubility at 24 h ([1]; neat dioxane, 298.1 K): 4170 µg/mL (≈ 11 mM)
- solubility at 24 h ([1]; neat ethyl lactate, 298.1 K): 1250 µg/mL (≈ 3.3 mM)
- solubility at 24 h ([1]; neat methanol, 298.1 K): 1510 µg/mL (≈ 3.99 mM)
- solubility at 24 h ([1]; neat tetraglyme, 298.1 K): 4620 µg/mL (≈ 12.2 mM)
- solubility at 24 h ([1]; neat triglyme, 298.1 K): 950 µg/mL (≈ 2.51 mM)
- solubility at 24 h ([1]; neat γ-heptalactone, 298.1 K): 1780 µg/mL (≈ 4.71 mM)
- solubility at 24 h [1, 4]: 1160 µg/mL (≈ 3.07 mM)
- solubility at 24 h ([1]; neat 1-butanol): 470 µg/mL (≈ 1.24 mM)
- solubility x ([1]; neat 1-butanol, 298.1 K): 1.11 (0.04) × 10^−4 mole fraction
- solubility at 24 h ([1]; neat 1-propanol): 610 µg/mL (≈ 1.61 mM)
- solubility x ([1]; neat 1-propanol, 298.1 K): 1.19 (0.05) × 10^−4 mole fraction
- solubility at 24 h ([1]; neat 4FM): 7220 µg/mL (≈ 19.1 mM)
- solubility x ([1]; neat 4FM, 298.1 K): 1.88 (0.04) × 10^−3 mole fraction
- solubility x ([1]; neat DMP, 298.1 K): 2.96 (0.11) × 10^−4 mole fraction
- solubility x ([1]; neat acetone, 298.1 K): 8.38 (0.16) × 10^−4 mole fraction
- solubility x ([1]; neat acetonitrile, 298.1 K): 2.76 (0.12) × 10^−4 mole fraction
- solubility x ([1]; neat cyrene, 298.1 K): 4.37 (0.09) × 10^−4 mole fraction
- solubility x ([1]; neat diglyme, 298.1 K): 9.43 (0.90) × 10^−4 mole fraction
- solubility x ([1]; neat dioxane, 298.1 K): 9.21 (0.21) × 10^−4 mole fraction
- solubility at 24 h ([1]; neat ethanol): 820 µg/mL (≈ 2.17 mM)
- solubility x ([1]; neat ethanol, 298.1 K): 1.26 (0.04) × 10^−4 mole fraction
- solubility x ([1]; neat ethyl lactate, 298.1 K): 3.75 (0.10) × 10^−4 mole fraction
- solubility x ([1]; neat methanol, 298.1 K): 1.60 (0.05) × 10^−4 mole fraction
- solubility x ([1]; neat triglyme, 298.1 K): 4.48 (0.06) × 10^−4 mole fraction
- solubility x ([1]; neat γ-heptalactone, 298.1 K): 5.92 (0.08) × 10^−4 mole fraction
- solubility x [1, 4]: 4.81 (0.06) × 10^−4 mole fraction
- solubility at 24 h ([1]; neat ε-caprolactone): 1600 µg/mL (≈ 4.23 mM)
- solubility x ([1]; neat ε-caprolactone, 298.1 K): 4.42 (0.09) × 10^−4 mole fraction
- solubility at 24 h ([2]; DMSO-water binary mixture, aqueous with cosolvent or surfactant or cyclodextrin, x*DMSO 0.1, 298.1 K): 88 mg/mL (≈ 233 mM)
- solubility at 24 h ([2]; DMSO-water binary mixture, aqueous with cosolvent or surfactant or cyclodextrin, x*DMSO 0.2, 298.1 K): 179 mg/mL (≈ 473 mM)
- solubility at 24 h ([2]; DMSO-water binary mixture, aqueous with cosolvent or surfactant or cyclodextrin, x*DMSO 0.3, 298.1 K): 219 mg/mL (≈ 579 mM)
- solubility at 24 h ([2]; DMSO-water binary mixture, aqueous with cosolvent or surfactant or cyclodextrin, x*DMSO 0.4, 298.1 K): 261 mg/mL (≈ 690 mM)
- solubility at 24 h ([2]; DMSO-water binary mixture, aqueous with cosolvent or surfactant or cyclodextrin, x*DMSO 0.5, 298.1 K): 305 mg/mL (≈ 806 mM)
- solubility at 24 h ([2]; DMSO-water binary mixture, aqueous with cosolvent or surfactant or cyclodextrin, x*DMSO 0.6, 298.1 K): 336 mg/mL (≈ 888 mM)
- solubility at 24 h ([2]; DMSO-water binary mixture, aqueous with cosolvent or surfactant or cyclodextrin, x*DMSO 0.7, 298.1 K): 356 mg/mL (≈ 941 mM)
- solubility at 24 h ([2]; DMSO-water binary mixture, aqueous with cosolvent or surfactant or cyclodextrin, x*DMSO 0.8, 298.1 K): 363 mg/mL (≈ 960 mM)
- solubility at 24 h ([2]; DMSO-water binary mixture, aqueous with cosolvent or surfactant or cyclodextrin, x*DMSO 0.9, 298.1 K): 355 mg/mL (≈ 938 mM)
- solubility at 24 h ([2]; DMSO-water series, organic solvent or mixture, x*DMSO 1.0, 298.1 K): 327 mg/mL (≈ 864 mM)
- solubility x ([2]; x*DMSO 0.1, 298.1 K): 5.27 (0.10) × 10^−3 mole fraction
- solubility x ([2]; x*DMSO 0.2, 298.1 K): 1.47 (0.02) × 10^−2 mole fraction
- solubility x ([2]; x*DMSO 0.3, 298.1 K): 2.25 (0.03) × 10^−2 mole fraction
- solubility x ([2]; x*DMSO 0.4, 298.1 K): 3.25 (0.05) × 10^−2 mole fraction
- solubility x ([2]; x*DMSO 0.5, 298.1 K): 4.46 (0.08) × 10^−2 mole fraction
- solubility x ([2]; x*DMSO 0.6, 298.1 K): 5.69 (0.15) × 10^−2 mole fraction
- solubility x ([2]; x*DMSO 0.7, 298.1 K): 6.72 (0.14) × 10^−2 mole fraction
- solubility x ([2]; x*DMSO 0.8, 298.1 K): 7.60 (0.10) × 10^−2 mole fraction
- solubility x ([2]; x*DMSO 0.9, 298.1 K): 8.00 (0.14) × 10^−2 mole fraction
- solubility x ([2]; x*DMSO 1.0, 298.1 K): 7.70 (0.11) × 10^−2 mole fraction
- solubility at 24 h ([3]; NMP-water binary mixture, x*NMP 0.1, 25 °C, aqueous with cosolvent or surfactant or cyclodextrin, x*NMP 0.1, 298.1 K): 56.6 mg/mL (≈ 150 mM)
- solubility at 24 h ([3]; NMP-water binary mixture, x*NMP 0.2, 25 °C, aqueous with cosolvent or surfactant or cyclodextrin, x*NMP 0.2, 298.1 K): 111 mg/mL (≈ 293 mM)
- solubility at 24 h ([3]; NMP-water binary mixture, x*NMP 0.3, 25 °C, aqueous with cosolvent or surfactant or cyclodextrin, x*NMP 0.3, 298.1 K): 161 mg/mL (≈ 426 mM)
- solubility at 24 h ([3]; NMP-water binary mixture, x*NMP 0.4, 25 °C, aqueous with cosolvent or surfactant or cyclodextrin, x*NMP 0.4, 298.1 K): 205 mg/mL (≈ 542 mM)
- solubility at 24 h ([3]; NMP-water binary mixture, x*NMP 0.7, 25 °C, aqueous with cosolvent or surfactant or cyclodextrin, x*NMP 0.7, 298.1 K): 285 mg/mL (≈ 753 mM)
- solubility at 24 h ([3]; NMP-water binary mixture, x*NMP 0.8, 25 °C, aqueous with cosolvent or surfactant or cyclodextrin, x*NMP 0.8, 298.1 K): 294 mg/mL (≈ 777 mM)
- solubility at 24 h ([3]; NMP-water binary mixture, x*NMP 0.9, 25 °C, aqueous with cosolvent or surfactant or cyclodextrin, x*NMP 0.9, 298.1 K): 282 mg/mL (≈ 746 mM)
- solubility at 24 h ([3]; NMP-water binary solvent, 25 °C, aqueous with cosolvent or surfactant or cyclodextrin, x*NMP 0.5, 298.1 K): 248 mg/mL (≈ 656 mM)
- solubility at 24 h ([3]; NMP-water binary solvent, 25 °C, aqueous with cosolvent or surfactant or cyclodextrin, x*NMP 0.6, 298.1 K): 272 mg/mL (≈ 719 mM)
- solubility at 24 h ([3]; NMP-water series, x*NMP 1.0, 25 °C, organic solvent or mixture, x*NMP 1.0, 298.1 K): 265 mg/mL (≈ 701 mM)
- solubility x ([3]; x*NMP 0.1, 298.1 K): 3.86 (0.05) × 10^−3 mole fraction
- solubility x ([3]; x*NMP 0.2, 298.1 K): 1.05 (0.01) × 10^−2 mole fraction
- solubility x ([3]; x*NMP 0.3, 298.1 K): 1.98 (0.04) × 10^−2 mole fraction
- solubility x ([3]; x*NMP 0.4, 298.1 K): 3.09 (0.04) × 10^−2 mole fraction
- solubility x ([3]; x*NMP 0.6, 298.1 K): 5.77 (0.07) × 10^−2 mole fraction
- solubility x ([3]; x*NMP 0.7, 298.1 K): 6.87 (0.11) × 10^−2 mole fraction
- solubility x ([3]; x*NMP 0.8, 298.1 K): 7.76 (0.08) × 10^−2 mole fraction
- solubility x ([3]; x*NMP 0.9, 298.1 K): 7.96 (0.10) × 10^−2 mole fraction
- solubility x ([3]; x*NMP 1.0, 298.1 K): 8.06 (0.25) × 10^−2 mole fraction
SMILES: O=C1Nc2ccc([N+](=O)[O-])cc2C1=NNC(=O)c1ccccc1C(F)(F)F [derivative 1, 2-trifluoromethyl-N′-[5-nitro-2-oxo-1,2-dihydro-3H-indol-3-ylidene]benzohydrazide]
- solubility x ([1]; neat DMF, 298.1 K): 2.66 × 10^−2 mole fraction and 2.66 (0.55) × 10^−2 mole fraction
- solubility x ([1]; neat DMSO, 298.1 K): 7.70 × 10^−2 mole fraction and 7.70 (0.11) × 10^−2 mole fraction
- solubility x ([1]; neat NMP, 298.1 K): 8.06 × 10^−2 mole fraction and 8.06 (0.25) × 10^−2 mole fraction
